Here are results for 4 compounds from US20260250247A1, “NOVEL INDOLINE DERIVATIVE AND USE THEREOF” (CK REGEON INC., priority 2023, published 2026).

Assay [1] deals with CXXC5-Dvl interaction (PDZ domain of Dvl (dishevelled) protein / PTD-DBM-FITC). In words: CXXC5-Dvl binding inhibition, competition of PTD-DBM-FITC on plate-bound Dvl PDZ domain. As to conditions: purified Dvl PDZ domain 5 μg/mL, 10 μM PTD-DBM-FITC, compounds 0.001-100 μM, FITC fluorescence. As to the method:
5 μg/mL of the purified PDZ domain ofDvl (dishevelled) protein was attached to the bottom of a 96-well black immunoplate and left in a chamber at 4° C. for one day. The next day, each well was washed with PBS and 10 μM PTD-DBM-FITC was added. After incubation at room temperature for 3 hours, each well was washed with PBS. Each well was treated with the indoline derivatives at various concentrations (100, 10, 1, 0.1, 0.01, and 0.001 μM) in 100 μL of PBS. After washing with a buffer, fluorescence was measured by FITC using a microplate reader. A competition binding curve showing the degree of CXXC5-Dvl PPI inhibition was constructed using the GraphPad Prism software, and the IC50 value was calculated. […] CK090), and the intermediate compound 5-cyanoindirubin as controls.

The test system of assay [2] is lipid droplets / PPARγ in liver tissue. In words: Liver Oil Red O staining and PPARγ immunohistochemistry in MASH mice. In kind it is in vivo, C57BL/6N mice. Particulars: 25 mg/kg/day orally for 4 weeks. As to the method:
(§1) Five-week-old wild-type male C57BL/6N mice were purchased from Orient Bio Co., Ltd. They were allowed to acclimate to the laboratory environment for one week. Mice weighing 18-20 g on average were used in the experiment. To ensure ethical and scientific validity and efficient management of animal experiments, the experiment was conducted with the approval of the Institutional Review Board (IACUC-A-202205-1472-01) of Severance Hospital, Yonsei University College of Medicine.
(§2) The mice were divided into a normal group (NCD) and a high-fat diet group (HFD). The normal group (NCD) was fed a normal chow diet (NCD, Teklad Global 18% protein rodent diet), and the high-fat diet group (HFD) was fed a high-fat diet (HFD, D12492) in which fat accounted for 60% of the total calories, for 8 weeks.
(§3) Mice induced with metabolic dysfunction-associated steatohepatitis (MASH) (hereinafter, referred to as MASH or MASH group) were prepared by administering CCl4 intraperitoneally twice a week for 4 weeks after feeding the high-fat diet (HFD) for 8 weeks. The […] was diluted with corn oil at a ratio of 1:19 and injected at a dosage of 2 mL/kg. The normal group (NOD) was administered the same volume of physiological saline.
(§4) The animals were divided into 7 groups, each with 10 animals.
It was investigated whether the accumulation of triglycerides in the liver is suppressed effectively. For this purpose, liver tissue was extracted from each group, and it was prepared into 10-μm thick cryosections, which were then stained with Oil Red O. Details are as follows. After preparing the 7 groups, the animals were euthanized using carbon dioxide and the liver tissues were extracted. A certain area of the extracted liver tissue was cryosectioned to 10 μm thickness, fixed in 4% neutral paraformaldehyde for 20 minutes at room temperature, and washed with 70% isopropanol (Duksan Pure Chemicals). After staining with the Oil Red O (Sigma-Aldrich) reagent for 20 minutes, the sections were washed thoroughly three times with distilled water. The tissue was counterstained with Mayer's hematoxylin. Then, Oil Red O staining images were visualized using a bright-field microscope (Nikon TE-2000U).
After preparing the 7 groups, the animals were sacrificed using carbon dioxide and the liver tissues were extracted. The extracted tissues were fixed in 4% neutral paraformaldehyde and embedded in paraffin to prepare sections. The paraffin sections were cut to 4-μm thickness, deparaffinized, and then rehydrated. For antigen exposure, slides were autoclaved in a 10 mM sodium citrate buffer (pH 6.0). To block endogenous peroxidase activity prior to peroxidase IHC analysis, the tissues were incubated with 0.3% H2O2 for 10 minutes. The incubated sections were treated with phosphate-buffered saline (PBS) containing 10% NGS and 0.3% Tween-20 for 1 hour at room temperature, treated with primary antibodies of anti-PPARγ (1:50; Abcam), and incubated overnight at 4° C.
The sections treated with the primary antibodies were washed with PBS and incubated with biotinylated anti-mouse (1:400; Dako) or anti-rabbit (1:400; Dako) secondary antibodies for 1 hour at room temperature. The sections incubated with the secondary antibodies were stained with 3,3′-diaminobenzidine (DAB; Dako) for 3-7 minutes and then counterstained with Mayer's haematoxylin. All incubations were performed in a humid chamber. After the staining, images were taken and analyzed using a bright-field microscope (Nikon TE-2000U).

Assay [3] concerns mice induced with metabolic dysfunction-associated steatohepatitis (MASH). The assay is described as follows: Liver fibrosis score from collagen staining (Picrosirius red) in MASH mice. As to conditions: 25 mg/kg/day orally for 4 weeks, mean±SD, normal group 0, MASH group 3.11. In kind it is in vivo, C57BL/6N mice. The method, then: as §1, §2, §3, §4
After preparing the 7 groups, the animals were euthanized using carbon dioxide and the liver tissues were extracted. The extracted tissues were fixed in 4% neutral paraformaldehyde and embedded in paraffin to prepare sections. The paraffin sections were cut to 4-μm thickness, deparaffinized, and then rehydrated. The hydrated sections were stained with a Weigert's iron hematoxylin solution for 8 minutes and then with Picrosirius red for 1 hour. Collagen fibers were stained red and nuclei were stained blue. The sections were photographed using a bright-field microscope (Nikon TE-2000U).
The main mechanism of nonalcoholic fatty liver disease is the induction of hepatic stellate cell activation, which induces collagen production and leads to liver fibrosis due to collagen accumulation. From the result of collagen staining (Picrosirius red) for observing the total amount of collagen deposition in Test Example 3-6, the liver fibrosis score was analyzed. Stages 2 to 3 were diagnosed as nonalcoholic fatty liver disease (MASH) (M. Brunt et al., 2005).
All quantitative data are presented as mean±standard deviation (SD). In each experiment, all measurements were made at least three times, and data were analyzed using the two-tailed, unpaired Student's t test. P values of <0.05 were considered statistically significant.

A further assay deals with 3T3-L1 pre-adipocytes. The assay is described as follows: Inhibition of adipocyte differentiation and lipid accumulation, Oil Red O. The format is cell-based. Particulars: Mus musculus, 192 h; 3T3-L1, compound 1 μM, MDI-induced differentiation for 8 days, Oil Red O eluted, absorbance 544 nm; read-out: lipid accumulation rate. As to the method: 3T3-L1 cells were seeded in a 6-well plate at a density of […] cells per well. The cells were grown to 100% confluency in Dulbecco's modified Eagle's medium (DMEM) supplemented with 10% bovine calf serum (BCS; GIBCO). Two days after reaching 100% confluency, differentiation was induced with or without treatment with the indoline compound at a concentration of 1 μM in DMEM containing 10% fetal bovine serum (FBS; GIBCO) and MDI (520 μM methylisobutylxanthine (IBMX; Sigma-Aldrich), 1 μM dexamethasone (Sigma-Aldrich), and 5 μM insulin (GIBCO)). On day 3, the medium was replaced with DMEM containing 10% FBS and 5 μM insulin with or without the indoline compound, and then with a fresh identical medium every 2 days. After differentiation for 8 days, the culture medium was removed, and the cells were washed with PBS and then fixed with 10% formaldehyde for 1 hour. After removing the 10% formaldehyde, the cells were washed thoroughly with distilled water. After that, 60% isopropanol was added and immediately then removed. After washing with distilled water, lipid droplets were stained with an Oil Red O dye solution for 20 minutes and then washed with distilled water. The cells were counterstained with Mayer's hematoxylin. Oil Red O images were visualized using a bright-field microscope (Nikon TE-2000U). To quantify the accumulated lipids, Oil Red O was eluted by adding isopropanol, and absorbance was measured spectrophotometrically at 544 nm using a multi-plate reader.
As A3051 (KY19382) and A3334, self-developed and synthesized materials were used. As BIO, or GSK 3 Inhibitor IX, also known as 6-bromoindirubin-3′-oxime, HY-10580 was purchased commercially.
In FIG. 2, the undifferentiated group (Un Diff) refers to undifferentiated adipocytes, or preadipocytes that had not been induced to differentiate, and the differentiated group (Diff) refers to fully differentiated adipocytes.

What is called IC50 is the concentration at which inhibition is half-maximal. A high value points to lower potency. In turn, `N#Cc1ccc2c(c1)/C(=C1/Nc3ccccc3/C1=N\OCCN1CCNCC1)C(=O)N2` [Example 1, (2Z,3E)-2′-oxo-3-((2-(piperazin-1-yl)ethoxy)imino)-[2,3′-biindolinylidene]-5′-carbonitrile] came in with a concentration for half-maximal inhibition (IC50) in assay [1] of 0.0193 µM. The “lipid droplet formation and lipid infiltration in liver, Oil Red O staining” value in assay [2] is “the size and number of lipid droplets were significantly reduced”. The “Degree of liver fibrosis (fibrosis score)” value (“Degree of liver fibrosis” for short) in assay [3] amounted to 2.00. Moreover, in the assay with 3T3-L1 pre-adipocytes, the activity at 1 µM was determined as 32.2%.
As to `N#Cc1ccc2c(c1)/C(=C1/Nc3ccccc3/C1=N\OCCN1CCOCC1)C(=O)N2` [Example 2, (2Z,3E)-3-((2-morpholinoethoxy)imino)-2′-oxo-[2,3′-biindolinylidene]-5′-carbonitrile], in assay [1], the IC50 worked out at 0.00861 µM. The “lipid droplet formation and lipid infiltration in liver, Oil Red O staining” value in assay [2] is “the size and number of lipid droplets were significantly reduced”. The “Degree of liver fibrosis” value in assay [3] is given as 1.85. Also, in the assay on 3T3-L1 pre-adipocytes, the activity at 1 µM was 32.3%.
In turn, `N#Cc1ccc2c(c1)/C(=C1/Nc3ccccc3/C1=N\OCCN1CCSCC1)C(=O)N2` [Example 3, (2Z,3E)-2′-oxo-3-((2-thiomorpholinoethoxy)imino)-[2,3′-biindolinylidene]-5′-carbonitrile] had an IC50 in assay [1] of 0.00554 µM. In addition, the “lipid droplet formation and lipid infiltration in liver, Oil Red O staining” value in assay [2] was “a significant effect of inhibiting lipid infiltration at a level similar to that of the normal group (NCD)”. The “Degree of liver fibrosis” value in assay [3] is 1.56. The activity at 1 µM in the assay with 3T3-L1 pre-adipocytes came to 28.9%.
Compound `CN1CCN(CCO/N=C2/C(=C3/C(=O)Nc4ccc(C#N)cc43)Nc3ccccc32)CC1` [Example 4, (2Z,3E)-3-((2-(4-methylpiperazin-1-yl)ethoxy)imino)-2′-oxo-[2,3′-biindolinylidene]-5′-carbonitrile] registered an IC50 in assay [1] of 0.0209 µM. Moreover, the “lipid droplet formation and lipid infiltration in liver, Oil Red O staining” value in assay [2] is “a significant effect of inhibiting lipid infiltration at a level similar to that of the normal group (NCD)”. Besides, the “Degree of liver fibrosis” value in assay [3] and in assay [3] (listed as CK004) was 0.67 each time. In addition, the activity at 1 µM with 3T3-L1 pre-adipocytes came out at 26%.
